From US20230219912A1, “HALOGENATED BENZOTHIADIAZINES FOR THE TREATMENT OF CANCER” (BOARD OF REGENTS OF THE UNIVERSITY OF NEBRASKA, priority 2020, published 2023)
“And” between values parts separate entries of the source, which are not always exact repeats. Identical values can stand only once. “Also recorded” adds a separate entry of the source.

Columns and labels:
[1] = target: T1, Mitochondrial respiratory complex II (Rattus norvegicus, UniProt P21913+Q641Z9+Q6PCT8+Q920L2); assay: Mitochondrial respiratory complex II inhibition assay; format: biochemical
T1 construct: measured spectrophotometrically using isolated rat heart mitochondria; from tissue; host or cells: rat heart mitochondria / sub-mitochondrial particles
T1 sequence (Q920L2 35-656): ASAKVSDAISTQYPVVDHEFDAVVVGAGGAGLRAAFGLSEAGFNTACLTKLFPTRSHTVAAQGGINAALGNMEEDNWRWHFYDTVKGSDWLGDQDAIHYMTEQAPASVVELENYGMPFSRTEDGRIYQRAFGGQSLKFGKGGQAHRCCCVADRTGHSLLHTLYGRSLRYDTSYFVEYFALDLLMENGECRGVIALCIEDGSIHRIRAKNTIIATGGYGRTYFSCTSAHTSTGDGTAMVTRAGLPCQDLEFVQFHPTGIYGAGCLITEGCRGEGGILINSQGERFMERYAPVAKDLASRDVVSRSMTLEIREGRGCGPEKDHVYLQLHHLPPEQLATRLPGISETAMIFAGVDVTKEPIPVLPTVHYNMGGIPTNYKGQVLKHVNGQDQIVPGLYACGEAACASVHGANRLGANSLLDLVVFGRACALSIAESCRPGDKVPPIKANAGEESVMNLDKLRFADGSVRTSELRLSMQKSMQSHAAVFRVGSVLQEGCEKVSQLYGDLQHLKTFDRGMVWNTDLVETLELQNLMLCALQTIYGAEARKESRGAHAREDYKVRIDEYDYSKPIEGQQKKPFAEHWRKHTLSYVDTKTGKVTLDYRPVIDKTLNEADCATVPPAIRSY
T1 sequence (P21913 31-282): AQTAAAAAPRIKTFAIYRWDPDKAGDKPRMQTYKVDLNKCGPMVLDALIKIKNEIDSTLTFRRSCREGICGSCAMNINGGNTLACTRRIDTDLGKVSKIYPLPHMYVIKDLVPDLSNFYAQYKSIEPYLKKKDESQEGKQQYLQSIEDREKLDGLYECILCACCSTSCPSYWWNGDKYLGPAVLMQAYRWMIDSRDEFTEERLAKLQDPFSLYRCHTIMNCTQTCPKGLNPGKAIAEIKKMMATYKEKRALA
T1 sequence (Q641Z9 1-169): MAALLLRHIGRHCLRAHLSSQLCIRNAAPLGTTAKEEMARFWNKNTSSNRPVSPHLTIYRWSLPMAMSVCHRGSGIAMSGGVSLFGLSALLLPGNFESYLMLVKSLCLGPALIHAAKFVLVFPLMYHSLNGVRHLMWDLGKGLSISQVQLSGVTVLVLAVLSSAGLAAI
T1 sequence (Q6PCT8 57-159): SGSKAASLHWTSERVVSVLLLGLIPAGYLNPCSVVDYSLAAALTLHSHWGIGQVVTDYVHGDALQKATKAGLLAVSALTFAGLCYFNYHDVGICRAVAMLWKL
How it was run: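 Rat heart mitochondria or sub-mitochondrial particles in phosphate buffer pH 7.4 with 40 μM DCPIP, 1 mM KCN, 10 μM rotenone and 50 μM co-enzyme Q2.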

[2] = system: MDA-MB-468 triple negative breast cancer cells; assay: MTS cytotoxicity assay in MDA-MB-468 triple negative breast cancer cells; format: cell-based; conditions: 10, 50 and 100 μM for 24, 48 and 72 hours, MTS
Procedure: The assay was performed as follows.
Derivatives were dosed at 10, 50 and 100 μM for 24, 48 and 72 hours and cell viability measured by MTS assay (FIG. 5).

[3] = system: VEGF-induced proliferation of HUVEC cells; assay: VEGF-induced HUVEC proliferation, MTT assay; format: cell-based, human; conditions: Homo sapiens, HUVEC, 48 h, 20 μM compound, VEGF 10 ng/mL, HUVEC, 48 h; relative to VEGF treated cells; mean ± SEM n = 3; read-out: % Inhibition of Proliferation
How it was run: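 HUVECs starved 24 h in 0.1% BSA/0.1% FBS basal medium, then treated 48 h with VEGF (10 ng/mL) alone or with compounds at 20 μM (DMSO <1%). Proliferation by MTT (2 h, 37° C), formazan dissolved in acidified isopropanol, absorbance at 570 nm.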

[4] = target: T2, Mitochondrial respiratory complex II (CII) (Rattus norvegicus, UniProt P21913+Q641Z9+Q6PCT8+Q920L2); conditions: rat heart mitochondria, literature; cited from earlier work
T2 construct: host or cells: rat heart mitochondria
T2 sequence (Q920L2 35-656): as the sequence (Q920L2 35-656) above
T2 sequence (P21913 31-282): as the sequence (P21913 31-282) above
T2 sequence (Q641Z9 30-169 limits assumed): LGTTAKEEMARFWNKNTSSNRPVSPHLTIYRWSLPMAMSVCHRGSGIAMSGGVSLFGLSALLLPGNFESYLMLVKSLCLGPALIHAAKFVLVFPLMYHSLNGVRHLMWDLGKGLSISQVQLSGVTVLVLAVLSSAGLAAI
T2 sequence (Q6PCT8 57-159): as the sequence (Q6PCT8 57-159) above

[5] = target: T3, TTK (Homo sapiens, UniProt P33981); conditions: 100 μM; cited from earlier work
T3 sequence (P33981 1-857): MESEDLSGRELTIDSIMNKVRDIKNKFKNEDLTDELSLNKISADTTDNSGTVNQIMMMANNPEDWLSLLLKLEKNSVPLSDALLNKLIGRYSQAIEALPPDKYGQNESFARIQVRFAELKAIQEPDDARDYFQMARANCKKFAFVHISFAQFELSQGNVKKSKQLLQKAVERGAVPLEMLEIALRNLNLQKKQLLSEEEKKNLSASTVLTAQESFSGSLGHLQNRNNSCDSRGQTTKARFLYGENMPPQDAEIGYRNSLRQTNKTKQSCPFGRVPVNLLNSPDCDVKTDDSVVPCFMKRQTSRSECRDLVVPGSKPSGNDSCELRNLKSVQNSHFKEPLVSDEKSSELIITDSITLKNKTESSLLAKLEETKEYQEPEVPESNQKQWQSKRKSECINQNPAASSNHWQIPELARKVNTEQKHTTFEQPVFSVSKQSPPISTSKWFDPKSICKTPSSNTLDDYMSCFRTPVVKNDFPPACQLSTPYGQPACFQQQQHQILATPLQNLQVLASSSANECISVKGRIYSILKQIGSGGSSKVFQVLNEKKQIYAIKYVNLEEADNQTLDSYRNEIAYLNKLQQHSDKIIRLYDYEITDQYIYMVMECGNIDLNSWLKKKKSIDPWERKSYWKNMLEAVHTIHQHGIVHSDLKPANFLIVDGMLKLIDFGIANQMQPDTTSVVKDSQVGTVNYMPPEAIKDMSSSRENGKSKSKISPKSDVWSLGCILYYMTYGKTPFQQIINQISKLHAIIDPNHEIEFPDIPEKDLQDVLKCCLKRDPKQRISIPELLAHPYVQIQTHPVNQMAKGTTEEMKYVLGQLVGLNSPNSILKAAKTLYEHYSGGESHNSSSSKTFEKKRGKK

[6] = target: IRAK1 (Homo sapiens, UniProt P51617); conditions: 100 μM; cited from earlier work
Chain of IRAK1 (P51617 whole entry): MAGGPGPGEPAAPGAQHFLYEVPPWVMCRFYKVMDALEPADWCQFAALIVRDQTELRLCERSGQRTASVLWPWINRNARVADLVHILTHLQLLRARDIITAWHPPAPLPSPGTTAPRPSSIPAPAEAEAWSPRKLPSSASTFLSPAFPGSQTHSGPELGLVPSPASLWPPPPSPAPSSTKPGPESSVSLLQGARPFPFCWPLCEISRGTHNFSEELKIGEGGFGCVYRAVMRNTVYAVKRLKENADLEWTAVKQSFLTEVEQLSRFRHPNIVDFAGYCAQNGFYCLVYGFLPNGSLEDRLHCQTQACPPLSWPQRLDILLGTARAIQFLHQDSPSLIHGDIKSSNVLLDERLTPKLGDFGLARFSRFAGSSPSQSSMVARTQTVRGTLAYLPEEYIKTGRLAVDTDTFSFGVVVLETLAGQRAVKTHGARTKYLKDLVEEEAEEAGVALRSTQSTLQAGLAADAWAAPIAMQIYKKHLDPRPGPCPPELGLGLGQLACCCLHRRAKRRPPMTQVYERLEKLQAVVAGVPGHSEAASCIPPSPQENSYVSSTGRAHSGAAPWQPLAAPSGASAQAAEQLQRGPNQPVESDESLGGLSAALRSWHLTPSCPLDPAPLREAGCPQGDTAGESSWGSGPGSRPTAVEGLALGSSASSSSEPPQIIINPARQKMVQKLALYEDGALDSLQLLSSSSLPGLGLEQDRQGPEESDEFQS

[7] = target: DYRK1A (Homo sapiens, UniProt Q13627); conditions: 100 μM; cited from earlier work
[8] = system: hormone-dependent mammary carcinomas; conditions: 300 mg/kg, rats; cited from earlier work
[9] = system: breast cancer; conditions: 200-300 mg per day, cited from earlier work

Compound: CC1=Nc2ccc(Cl)cc2S(=O)(=O)N1 [Diazoxide, 7-chloro-3-methyl-2H-1,2,4-benzothiadiazine 1,1-dioxide, reference compound]
- inhibition of CII ([1]; 100 μM, relative to DMSO control): no CII inhibition activity
- inhibition at 100 µM ([1]; 100 μM, relative to DMSO control, read-out: inhibition of CII): 9%
- IC50 ([1]; isolated rat heart mitochondria, mean ±SD of n = 4, read-out: CII IC50): 1240 µM and > 1000 µM
- effect on MDA-MB 468 TNBC cell viability [2]: no effect to reduce cell viability; also recorded: little activity to reduce TNBC cell viability
- effect on MDA-MB 468 TNBC cell viability ([2]; listed as 9): no effect on cell viability
- inhibition at 20 µM [3]: 15 ± 20%
- IC50 [4]: 32 µM
- inhibition of TTK [5]: 15%
- inhibition of IRAK1 [6]: 9%
- inhibition of DYRK1A [7]: 7%
- adverse effect [8]: mild reversible diabetes
- inhibition of tumor growth [8]: 90%
- response rate ([9]; nine patients): 33%
- duration of stable disease [9]: 4-8 months
